# From patent US9777014B2, “Tetrahydro-2H-pyrano[3,2-C]isochromene-6-ones and analogs for the treatment of inflammatory disorders” (Council of Scientific & Industrial Research, priority 2013, dated 2017)
# “Also recorded” adds a separate entry of the source.
# Legend:
# [1] = test system: IL-6; assay: IL-6 production in Con A/LPS stimulated splenocytes (ELISA); type: cell-based; conditions: for IC50: Splenocyte, splenocytes, Con A or LPS, 72 h, ELISA; for inhibition of IL-6 production (in words): at low micromolar to nanomolar concentrations
# Method: (§1) Splenocytes were seeded into three to four wells of a 96-well flat-bottom microtiter plate (Nunc) at 2×10^6 cells/ml. Cells were incubated with different concentrations of compounds (0.1 μM-100 μM) along with Con A (2.5 μg/well) or LPS (1 μg/ml) for 72 h at 37° C. with 5% CO2 in CO2 incubator. The culture supernatants were harvested and the measurement of cytokines (TNF-α and IL-6) in the culture supernatants was carried out using commercial kits as per manufacturer's instructions by using ELISA kits (R&D, USA) (Life Sci. 2007, 80, 1525-1538; J. Immunol. Methods 1983, 65, 55-63).
# [2] = test system: TNF-α; assay: TNF-α in cell supernatant of macrophages, ex vivo LPS-induced model; parameters: species or system Balb/c mice
# Description: (§2) Macrophages are the main source of cytokines in inflammation. Lipopolysaccharides LPS may stimulate macrophages to produce large quantities of proinflammatory cytokines that promote inflammation. In this study, we investigated the effect of compounds 1-3 on the expression and secretion of cytokines (TNF-α/IL-6) in vivo in cell supernatant and serum. For this study, male Balb/c mice (5-6 weeks of age) were maintained under pathogen-free conditions in an animal housing unit in a temperature-controlled (23±2° C.) and light-controlled (12 h light/dark cycle) room. Animals were provided standard rodent chow and water ad libitum. Female Balb/C mice (8-10 weeks) were obtained from animal house, 3 or 4 per cage with a 12 h light/dark cycle, provided standard water ad libitum, and acclimated to their environment at least a week before the start of experiments. One hour prior to the start of each experiment, feed and water were removed from the cages. Mice were treated with 10 mg/kg and 100 mg/kg of compounds 1-3 orally over a period of 5 days. LPS 10 μg/ml was injected and blood as well macrophages were collected. The dose was selected based on in vitro result.
# (§3) Ex vivo determination of TNF-α, IL-6 & IL-1β in cell supernatant: Blood for serum cytokines production was collected from each treated and untreated animals before the collection of macrophages from peritoneal cavity. Cells were seeded in 96-well plates at 5×10^5 cells mL^−1. Cells were then stimulated with 1 μg mL^−1 LPS for 4 hrs. The cell supernatant was stored at −80° C. The production of TNF-α, IL-6, IL-1β and NO in macrophages cell supernatants of LPS-challenged mice were measured by commercial ELISA kits (B. D. Pharmingenin; R&D systems, Inc., Minneapolis, Minn., USA) and cytokine concentration was determined (J. Am. College Nutr. 2004, 23, 71-78).
# [3] = test system: IL-6; assay: IL-6 in cell supernatant of macrophages, ex vivo LPS-induced model; parameters: species or system Balb/c mice
# Description: as §2, §3
# [4] = test system: nitric oxide (NO); assay: Nitric oxide (NO) in serum, in-vivo LPS-induced model (Griess assay); parameters: species or system Balb/c mice
# Description: as §2
# (§4) Measurement of in vivo serum levels of TNF-α and IL-6: The mice were divided into 4 groups: no treatment group, injected with phosphate buffered saline (PBS); LPS only; LPS+Dexamethasone (0.05 μg/ml); or LPS+compound 1 at 10 and 100 μM doses (n=6 for each group). Groups were pretreated orally with 200 μl of PBS, dexamethasone or compounds 1, 2, 3 for 45 min. Lipopolysaccharide (100 nM) was then administered (200 μL) i.p for treatment groups, and RPMI was administered i.p for the negative control group.
# NO determination by Griess assay: NO production was indirectly assessed by measuring the nitrite level in the cultured media and serum determined by a colorimetric method based on the griess reaction. The cells were incubated with cinnamic aldehyde, cinnamic alcohol, cinnamic acid, coumarin (0, 6.25, 12.5, 25, and 50 μM) in presence of LPS (100 ng/mL) at 37° C. for 24 h. Then, cells were dispensed into 96-well plates, and […] of each supernatant was mixed with the same volume of griess reagent (1% sulfanilamide, 0.1% naphthyl ethylenediamine dihydrochloride and 5% phosphoric acid) and incubated at room temperature for 10 min., the absorbance was measured at 540 nm with a Micro-Reader (Molecular Devices, Orleans Drive, Sunnyvale, Calif.). Serum samples were diluted four times with distilled water and deproteinized by adding 1/20 volume of zinc sulphate (300 g/L) to final concentration of 15 g/L. After centrifugation at 10,000×g for 5 min at room temperature, 100 μL supernatant was applied to a microtitre plate well, followed by 100 μL of Griess reagent. After 10 min of color development at room temperature, the absorbance was measured at 540 nm with a Micro-Reader. By using sodium nitrite to generatea standard curve, the concentration of nitrite was measured by absorbance at 540 nm (J. Ethnopharmacology, 2011, 135, 545-552).
# [5] = test system: TNF-α; assay: TNF-α production in Con A/LPS stimulated splenocytes (ELISA); type: cell-based; conditions: for IC50: Splenocyte, splenocytes, Con A or LPS, 72 h, ELISA; for inhibition of TNF-α production (in words): at low micromolar to nanomolar concentrations
# Method: as §1
# [6] = test system: T-cell; assay: Effect on T-cell proliferation (Con-A stimulated spleen cells, MTT); type: cell-based; conditions: for inhibition of T-cell proliferation (in words): 0.1 μM-100 μM tested; for IC50: T-cell, Con-A stimulated spleen cells, 72 hrs, MTT
# Method: Compounds provided in present invention were evaluated for their effect on T-cell proliferation. The protocol used for this bioassay is as follows: A single spleen cell suspension was prepared under sterile conditions and suspended in complete medium RPMI 1640 containing 10% Fetal calf serum (FCS). Spleenocytes were seeded into 4-5 wells of a 96-well flat bottom microtitre plate (Nunc) at (2×10^6 cells/ml). Thereafter, Concanavalin (Con-A) in the final concentration of 2.5 μg/well was added to stimulate T-cell, or LPS in the final concentration of 1 μg/ml was added to stimulate B-cell in the respective wells. Variable concentrations of compounds of the present invention (0.1 μM-100 μM) were added. Thereafter, the plates were incubated at 37° C. in 95% humidity at 5% CO2 in a CO2 incubator for 72 hrs. After 72 hours, 50 μl of MTT solution (5 mg/ml) was added to each well and the plates were incubated for 4 h. Thereafter, plates were centrifuged (400×g, 5 min.) and the untransformed MTT was removed. 200 μl of DMSO (192 μl with 8 μl 1N HCl) was added to each well, and the absorbance was determined in an ELISA reader at 570 nm after 15 min (Life Sci. 2007, 80, 1525-1538).
# [7] = test system: IL-6; assay: IL-6 in serum, in-vivo LPS-induced model; parameters: species or system Balb/c mice
# Description: as §2, §4
# (§5) Ex vivo TNF-α and IL-6 determination by ELISA: Blood was allowed to clot overnight at 4° C. Serum was analyzed for IL-6, TNF-α, and IL-1β by ELISA. IL-6 analysis was performed using purified and biotin-conjugated rat anti-mouse IL-6 antibodies from PharMingen (San Diego, Calif.) as described previously. Streptavidin—peroxidase (Sigma) and 3,3′,5,5′-tetramethylbenzidine (TMB, Fluka, Ronkonkoma, N.Y.) were used for detection. Absorbance was read at 450 nm using a Vmax™ Kinetic Microplate Reader (Molecular Devices, Menlo Park, Calif.). For TNF-α analysis the OptEIA Set: Mouse TNF-α (Mono/Poly) kit was employed (PharMingen) (J. Immunol. Methods 1983, 65, 55-63).
# [8] = test system: TNF-α; assay: TNF-α in serum, in-vivo LPS-induced model; parameters: species or system Balb/c mice; conditions: for TNF-α in serum: in-vivo LPS-induced model; for activity against TNF-α in in-vivo LPS model compared with bergenin (1): Table 3, serum
# Description: as §2, §4, §5
# [9] = test system: IL-4; assay: IL-4 production in stimulated splenocytes; type: cell-based; conditions: at low micromolar to nanomolar concentrations
# [10] = test system: IL-1β; assay: IL-1β production in stimulated splenocytes; type: cell-based; conditions: at low micromolar to nanomolar concentrations
Structure (SMILES),IC50 [1],TNF-α in cell supernatant of macrophages ([2]; Dose 10 (μM as printed)),TNF-α in cell supernatant of macrophages ([2]; Dose 100 (μM as printed)),IL-6 in cell supernatant of macrophages ([3]; Dose 10 (μM as printed)),IL-6 in cell supernatant of macrophages ([3]; Dose 100 (μM as printed)),NO in serum ([4]; Dose 10 (μM as printed)),NO in serum ([4]; Dose 100 (μM as printed)),IC50 [5],IC50 [6],IL-6 in serum ([7]; Dose 10 (μM as printed)),IL-6 in serum ([7]; Dose 100 (μM as printed)),TNF-α in serum ([8]; Dose 10 (μM as printed)),TNF-α in serum ([8]; Dose 100 (μM as printed)),inhibition of IL-6 production (in words) [1],inhibition of TNF-α production (in words) [5],inhibition of T-cell proliferation (in words) [6],activity against TNF-α in in-vivo LPS model compared with bergenin (1) [8],inhibition of IL-4 production (in words) [9],inhibition of IL-1β production (in words) [10],further results
"COc1c(O)cc2c(c1O)[C@@H]1O[C@H](CO)[C@@H](O)[C@H](O)[C@H]1OC2=O [Compound 1, Bergenin, reference compound]",< 100 nM,89 ± 6.1 pg/mL,78 ± 4.9 pg/mL,24.6 ± 6.9 ng/mL,53.5 ± 7.5 ng/mL,2.62 ± 0.62 µM,3.29 ± 0.88 µM,630 nM,100 nM,282 ± 98 ng/mL,55 ± 12 ng/mL,667 ± 208 pg/mL,509 ± 185 pg/mL,–,–,–,–,–,–,inhibition of IL-6 production (in words) ([1]; listed as Bergenin (1)): showed inhibition; also recorded: most potent; inhibition of TNF-α production (in words) ([5]; listed as Bergenin (1)): showed inhibition; also recorded: most potent; inhibition of T-cell proliferation (in words) ([6]; listed as Bergenin (1)): showed inhibition; also recorded: most potent; inhibition of IL-4 production (in words) ([9]; listed as Bergenin (1)): showed inhibition; also recorded: most potent; inhibition of IL-1β production (in words) ([10]; listed as Bergenin (1)): showed inhibition; also recorded: most potent
"CCN(CC)Cc1c(O)c(OC)c(O)c2c1C(=O)OC1C2OC(CO)C(O)C1O (centres unmarked) [Compound 2, 7-((Diethylamino)methyl)-2,3,4,4a-tetrahydro-3,4,8,10-tetrahydroxy-2-(hydroxymethyl)-9-methoxypyrano[3,2-c]isochromen-6(10bH)-one]",< 100 nM,102 ± 12^ pg/ml,89 ± 6.4 pg/mL,41.4 ± 8.9 ng/mL,17.3 ± 3.0 ng/mL,5.0 ± 0.80 µM,3.0 ± 0.73 µM,< 100 nM,< 100 nM,102 ± 40 ng/mL,275 ± 65 ng/mL,585 ± 192 pg/mL,388 ± 115 pg/mL,most potent,most potent,most potent,better activity than bergenin (1),most potent,most potent,–
"COc1c(O)c(CN2CCN(C)CC2)c2c(c1O)C1OC(CO)C(O)C(O)C1OC2=O (centres unmarked) [Compound 3, 2,3,4,4a-Tetrahydro-3,4,8,10-tetrahydroxy-2-(hydroxymethyl)-9-methoxy-7-((4-methylpiperazin-1-yl)methyl)pyrano[3,2-c]isochromen-6(10bH)-one]",< 100 nM,78 ± 4.9 pg/mL,84 ± 6.7 pg/mL,12.1 ± 2.81 ng/mL,21.1 ± 3.2 ng/mL,2.87 ± 0.73 µM,1.24 ± 0.25 µM,< 100 nM,6100 nM,282 ± 98 ng/mL,58 ± 12 ng/mL,672 ± 221 pg/mL,398 ± 62 pg/mL,most potent,most potent,most potent,better activity than bergenin (1),most potent,most potent,–
